{"source": "patent US7838557B2", "about": "“Concentrated X-ray contrast media can act as universal antigens and can inhibit or prevent allergic reactions” (priority 2001, dated 2010)", "key": {"Brown Norway Rats": {"test_system": "Brown Norway Rats", "experiment": "Mean arterial blood pressure after i.v. contrast media injection, Brown Norway rats", "format": "in vivo", "settings": "mean ± S.E."}, "IgG anti-γ-globulin": {"test_system": "IgG anti-γ-globulin", "experiment": "Passive red blood cell hemagglutination inhibition, γ-globulin vs. anti-γ-globulin", "format": "binding", "settings": "γ-globulin bound to sheep RBC; incubation 2-3 hours at room temperature", "source_text": "Employing a highly sensitive test for antibody-antigen complexing (passive red blood cell hemagglutination inhibition), we found what we consider the answer to this problem. Ovalbumin and gamma globulin (Sigma) were bound to glutaraldehyde stabilized sheep red blood cells (Inter-Cell Technologies, Hopewell, N.J.). Bis-diazotized benzidine was used to bind the ovalbumin to the RBC's. The gamma-globulin bound directly. In both the case of the ovalbumin and the gamma-globulin, the sensitized red blood cells were allowed to incubate with each of the contrast media (methylglucamine iothalamate [CONRAY; 282 mg iodine/ml, Mallinckrodt Medical, St. Louis Mo.], ioversol [[…] 320; 320 mg iodine/ml, […]; 320 mg iodine/ml, Mallinckrodt] and […]; 300 mg iodine/ml, Schering Pharmaceutical; […] When competition occurred, there would be a diminished diameter of the agglutination, depending on the antibody titer that could be compared to a control, where saline was substituted for the CM. With complete competition (inhibition), no agglutination would be visible and the RBCs would form a small button of cells at the bottom of the microtiter well. Visible agglutination was evaluated on a 1+ to 4+ basis. Studies were also carried out where the RBCs were incubated with CM before or after binding of the antigen to BDB or the RBC to determine whether competition of the CM with the antigen might actually represent displacement of the […] from the RBC surface. It was discovered that contrast media can in fact act as an antigen and combine with antibodies ([…]. and […]., Academic Radiology 1998, 5 (suppl. 1; […]-[…])). This was shown when, at various concentrations, individual contrast media would inhibit the agglutination of RBC-attached ovalbumin or RBC-attached gamma globulin in the presence of their respective antibodies, thus resulting in a button of cells, rather than agglutination, in the bottom of the microtiter well."}, "Sprague Dawley Rats": {"test_system": "Sprague Dawley Rats", "experiment": "Mean arterial blood pressure after i.v. contrast media injection, Sprague Dawley rats", "format": "in vivo", "settings": "mean ± S.E."}, "[1]": {"test_system": "rats injected intradermally with serum from ovalbumin sensitized rats", "experiment": "Passive cutaneous anaphylaxis (PCA), Evans Blue extravasation", "format": "in vivo", "settings": "for Stain (mm ± S.E./10): 50 μl sensitized serum", "description": "In a further test of the ability of appropriate contrast media to mitigate ongoing antigen-antibody reactions, a passive cutaneous anaphylaxis (PCA) experiment was performed in rats.\nIn this Example, rats were injected intradermally with 50 μL of serum from ovalbumin sensitized rats and varying mixtures of Na/meglumine iothalamate (MD-76; 370 mg iodine/ml, Mallinckrodt) and normal saline to a total of 50 μl. This was followed in 5-7 hours by intravenous injections of 1 mg ovalbumin along with Evans Blue and then measurement of the subsequent extravasation of the blue coloring in the area under the skin. Evans Blue binds to serum albumin and the diameter of the area of blue indicates extravasation of albumin secondary to specific antigen-antibody reactions. […] In this case, where large amounts of CM are available due to local deposition, even an ionic monomer was sufficient to block specific antibody-antigen reactivity (see Table III below)."}, "[2]": {"test_system": "Brown-Norway and Sprague Dawley rats", "experiment": "Blood pressure changes in rats after H-1 blocker, L-NAME or contrast media (text and FIGS. 4A-4B)", "format": "in vivo"}, "[3]": {"test_system": "ovalbumin-sensitized Sprague Dawley rats", "experiment": "Blood pressure in ovalbumin anaphylaxis of ovalbumin-sensitized rats", "format": "in vivo", "settings": "CM i.v. 6 hours before, 45 minutes before, concurrently, or 10 minutes after 10 mg ovalbumin", "description": "To further substantiate the concept that contrast media, acting as pseudoantigens, could interfere with existing antigen-antibody reactions, an experiment was conducted where a series of rats were sensitized to ovalbumin and later challenged the rats by intravenous injections of ovalbumin.\nVarying CM or other materials were injected into the tail vein of anesthetized Sprague Dawley rats ([…]). The CM tested were IOXAGLATE and IODIXANOL. Both are CM dimers and IOXAGLATE is ionic and IODIXANOL is nonionic. The CM injections were done 12 to 14 days after sensitization of the rats by intraperitoneal injections of 1 mg of ovalbumin in normal saline. A Propaq blood pressure apparatus was connected to polyethylene catheters inserted into a carotid artery to monitor mean arterial blood pressure. Injection rates were 6 ml/kg/min. The CM were injected I.V. either 6 hours before, 45 minutes before, concurrent with, or 10 minutes post challenge of a dose of 10 mg of ovalbumin. Saline injections, equiosmolar to the CM and injected at the same time intervals served as controls."}, "[4]": {"test_system": "ragweed pollen sensitized rats", "experiment": "Experimental allergic conjunctivitis, ragweed pollen sensitized rats", "format": "in vivo, Sprague-Dawley rats", "source_text": "In this Example, the potential protective effect of a contrast material on experimental allergic conjunctivitis induced in rats was examined. The rats were sensitized systemically to either ovalbumin or ragweed pollen and 10 to 12 days later obtained local sensitization by several applications of the respective antigens to the eyes. The rats were then challenged with a larger dose of the antigen accompanied by either the contrast media or equiosmolal saline and sacrificed at several different time periods for examination of the excised eyes.\nThe tissues were examined on a “blinded” basis and assigned a 0 to 3+ rating based on the perceived abundance of inflammatory cells (mostly lymphocytes, but also including eosinophils, polymorphonuclear leukocytes, and mast cells). The ovalbumin experiment was carried out at 3 hours post antigen application (8 rats) and at 24 hours post application (8 rats) and the ragweed study was carried out at 1 hour post application (8 rats) and at 24 hours post application (8 rats). The cumulative scores for the ratings in each set of rats were recorded. Details of the ovalbumin study are as follows.\nA ragweed pollen experiment also involved 16 Sprague-Dawley rats born approximately 2 months previously and sensitized on Day 1 with SQ injections of 0.1 ml of N. saline containing 100 μg of ragweed pollen (P-0146, Sigma) and 20 mg alum. On Day 14, 20 μl of saline (left eye) or 20 μl of IODIXANOL (right eye) were applied to the eyes. 15 min. later, both eyes were treated with 10 μl of phosphate buffered saline containing 1.5 mg of ragweed pollen. The process was done 4 times at 15 min. intervals."}}, "data": [{"compound": "O=C(NCC(O)CO)c1c(I)c(C(=O)NCC(O)CO)c(I)c(N(CCO)C(=O)CO)c1I", "note": "(centres unmarked) [OPTIRAY, IOVERSOL]", "values": [{"measurement": "Net decrease in mean arterial blood pressure", "setting": "Brown Norway Rats; Monomers (4 ml)", "result": "decrease (20 ± 1.5) (3) mm Hg"}, {"measurement": "Net decrease in mean arterial blood pressure", "setting": "Brown Norway Rats; Monomers (8 ml)", "result": "decrease (33 ± 2.8) (3) mm Hg"}, {"measurement": "Lowest concentration of CM showing a 2+ or 3+ inhibition of 1/500 IgG anti-γ-globulin", "setting": "IgG anti-γ-globulin", "result": 16.0, "unit": "mg/mL"}, {"measurement": "Net decrease in mean arterial blood pressure", "setting": "Sprague Dawley Rats; Monomers (8 ml)", "result": "decrease (22 ± 0.0) (1) mm Hg"}]}, {"compound": "CNC(=O)c1c(I)c(NC(C)=O)c([125I])c(C(=O)[O-])c1[125I].[Na+]", "note": "[Na LOTHALAMATE]", "values": [{"measurement": "Lowest concentration of CM showing a 2+ or 3+ inhibition of 1/500 IgG anti-γ-globulin", "setting": "IgG anti-γ-globulin", "result": 28.2, "unit": "mg/mL"}]}, {"compound": "Na/meglumine iothalamate [MD-76]", "values": [{"measurement": "Stain (mm ± S.E./10)", "setting": "[1]; Site 1: 50 μl CM, 0 μl saline", "result": "7.5 ± 7", "unit": "mm"}, {"measurement": "Stain (mm ± S.E./10)", "setting": "[1]; Site 2: 40 μl CM, 10 μl saline", "result": "10.0 ± 10", "unit": "mm"}, {"measurement": "Stain (mm ± S.E./10)", "setting": "[1]; Site 3: 30 μl CM, 20 μl saline", "result": "17.5 ± 10", "unit": "mm"}, {"measurement": "Stain (mm ± S.E./10)", "setting": "[1]; Site 4: 20 μl CM, 30 μl saline", "result": "62.5 ± 28", "unit": "mm"}, {"measurement": "Stain (mm ± S.E./10)", "setting": "[1]; Site 5: 10 μl CM, 40 μl saline", "result": "115 ± 60", "unit": "mm"}, {"measurement": "Stain", "setting": "[1]; controls with nonsensitized serum (3 rats), 0, 25, and 50 μl CM", "result": "no stain"}]}, {"compound": "CNC(=O)c1c(I)c(NC(C)=O)c(I)c(C(=O)O)c1I.CNC[C@H](O)[C@@H](O)[C@H](O)[C@H](O)CO", "note": "[Conray, methylglucamine iothalamate]", "values": [{"measurement": "Net decrease in mean arterial blood pressure", "setting": "Brown Norway Rats; Monomers (4 ml)", "result": "decrease (37 ± 1.6) (3) mm Hg"}, {"measurement": "Lowest concentration of CM showing a 2+ or 3+ inhibition of 1/500 IgG anti-γ-globulin", "setting": "IgG anti-γ-globulin", "result": 28.2, "unit": "mg/mL"}, {"measurement": "Net decrease in mean arterial blood pressure", "setting": "Sprague Dawley Rats; Monomers (4 ml)", "result": "decrease (55 ± 5.0) (3) mm Hg"}]}, {"compound": "C[C@H](O)C(=O)Nc1c(I)c(C(=O)NC(CO)CO)c(I)c(C(=O)NC(CO)CO)c1I", "note": "[Isovue, IOPAMIDOL]", "values": [{"measurement": "Net decrease in mean arterial blood pressure", "setting": "Brown Norway Rats; Monomers (8 ml)", "result": "decrease (36 ± 8.6) (2) mm Hg"}, {"measurement": "Net decrease in mean arterial blood pressure", "setting": "Sprague Dawley Rats; Monomers (8 ml)", "result": "decrease (27 ± 8.6) (2) mm Hg"}]}, {"compound": "meglumine/sodium diatrizoate [Angiovist]", "values": [{"measurement": "Net decrease in mean arterial blood pressure", "setting": "Brown Norway Rats; Monomers (8 ml)", "result": "decrease (40 ± 0.0) (1) mm Hg"}]}, {"compound": "COC(=O)[C@@H](N)CCCNC(=N)N[N+](=O)[O-]", "note": "[L-NAME, NG-nitro-L-arginine methyl ester]", "values": [{"measurement": "Change in blood pressure (in words)", "setting": "[2]; substance injected by itself", "result": "immediate elevation in blood pressure"}]}, {"compound": "CN(C)CCOC(c1ccccc1)c1ccccc1", "note": "[diphenyhydramine, diphenhydramine]", "values": [{"measurement": "Change in blood pressure (in words)", "setting": "[2]; substance injected by itself", "result": "immediate elevation in blood pressure"}]}, {"compound": "CNC(=O)c1c(I)c(C(=O)NCC(=O)Nc2c(I)c(C(=O)O)c(I)c(C(=O)NCCO)c2I)c(I)c(N(C)C(C)=O)c1I", "note": "[HEXABRIX, IOXAGLATE]", "values": [{"measurement": "Return of blood pressure after ovalbumin challenge, compared with equiosmolar saline", "setting": "[3]", "result": "more rapid return of the blood pressure to normal levels"}, {"measurement": "Net increase in mean arterial blood pressure", "setting": "Brown Norway Rats; Dimers (8 ml)", "result": "increase (31 ± 4.6) (3) mm Hg"}, {"measurement": "Lowest concentration of CM showing a 2+ or 3+ inhibition of 1/500 IgG anti-γ-globulin", "setting": "IgG anti-γ-globulin", "result": 8.0, "unit": "mg/mL"}]}, {"compound": "CC(=O)N(CC(O)CN(C(C)=O)c1c(I)c(C(=O)NCC(O)CO)c(I)c(C(=O)NCC(O)CO)c1I)c1c(I)c(C(=O)NCC(O)CO)c(I)c(C(=O)NCC(O)CO)c1I", "note": "(centres unmarked) [IODIXANOL]", "values": [{"measurement": "Return of blood pressure after ovalbumin challenge, compared with equiosmolar saline", "setting": "[3]", "result": "more rapid return of the blood pressure to normal levels"}, {"measurement": "Cumulative score of inflammatory cell infiltration (0 to 3+ rating per eye)", "setting": "[4]; 1 HOUR READING, 20 μl applied to the eye before ragweed pollen, 8 rats", "result": 0}, {"measurement": "Protection against ragweed pollen conjunctivitis (in words)", "setting": "[4]; local application", "result": "provides a degree of protection"}, {"measurement": "Number of zero scores in the group", "setting": "[4]; no absolute zeros in the saline group, study (ragweed or combined) not specified", "result": 3}]}, {"compound": "CN(C(=O)CC(=O)N(C)c1c(I)c(C(=O)NC(CO)C(O)CO)c(I)c(C(=O)NC(CO)C(O)CO)c1I)c1c(I)c(C(=O)NC(CO)C(O)CO)c(I)c(C(=O)NC(CO)C(O)CO)c1I", "note": "(centres unmarked) [ISOVIST, IOTROLAN]", "values": [{"measurement": "Net increase in mean arterial blood pressure", "setting": "Brown Norway Rats; Dimers (4 ml)", "result": "increase (18 ± 0.00 (1) mm Hg"}, {"measurement": "Net increase in mean arterial blood pressure", "setting": "Brown Norway Rats; Dimers (8 ml)", "result": "increase (20 ± 2.0) (4) mm Hg"}, {"measurement": "Lowest concentration of CM showing a 2+ or 3+ inhibition of 1/500 IgG anti-γ-globulin", "setting": "IgG anti-γ-globulin", "result": 14.0, "unit": "mg/mL"}, {"measurement": "Net increase in mean arterial blood pressure", "setting": "Sprague Dawley Rats; Dimers (8 ml)", "result": "increase (11 ± 4.6) (3) mm Hg"}, {"measurement": "Change in blood pressure (in words)", "setting": "[2]; production of nitric oxide blocked by L-NAME", "result": "can no longer produce an elevation in blood pressure"}, {"measurement": "Change in blood pressure (in words)", "setting": "[2]; substance injected by itself", "result": "produces an elevation in pressure"}]}]}
